The source of these data is ChEMBL document CHEMBL1201862, “PubChem BioAssay data set” (2004).

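Exposure lasted 48 hours, with cells grown in 96-well plates and compounds tested at five concentrations. At the GI50, growth is halved.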 The source made the active and inactive calls. No stated cut-off is given here; in the data, active = GI50 up to about 1.1 µM and inactive = higher. A value given as a limit tells only on which side of the number the result lay.

Some test systems named below: SF-539; MCF7; RXF 393; OVCAR-4; SNB-19; M14; NCI-H23; HCT-116; Malme-3M; SR; HCC 2998; T47D; HOP-62; A498; KM12; EKVX; BT-549; LOX IMVI; UACC-257.
Common to all, as to assay: inhibition of tumour cell growth, NCI panel, 48 h

With `O=C1OCCC12CN(Cc1ccccc1)N=N2` (configuration not stated), the GI50 in the experiment on SF-539, with MCF7, in the experiment on RXF 393, with OVCAR-4, in the experiment with SNB-19 and in the experiment with M14 was > 100 µM (inactive) in each case. For the same compound, the GI50 in the experiment with NCI-H23 was > 100 µM (inactive); with HCT-116, > 100 µM (inactive); in the experiment on Malme-3M it was 12.1 µM (inactive); in the experiment with SR, 13.2 µM (inactive); with HCC 2998 it was > 100 µM (inactive); in the experiment with T47D, > 100 µM (inactive). Also, the GI50 in the experiment with HOP-62, in the experiment on A498 and with KM12 was > 100 µM (inactive) throughout.

In the case of `CC1CNC(NS(=O)(=O)c2cc(C(=O)Nc3ccccc3)c(Cl)cc2S)=NN1` (configuration not stated), the GI50 in the experiment with SF-539 is 38.4 µM (inactive); with MCF7, 36.5 µM (inactive); with OVCAR-4, 67.3 µM (inactive); in the experiment on EKVX, > 100 µM (inactive); in the experiment on BT-549 it was 97.3 µM (inactive); with SNB-19, 57 µM (inactive). For the same compound, the GI50 is 26.4 µM (inactive) in the experiment on M14; 44.1 µM (inactive) in the experiment with NCI-H23; 30.5 µM (inactive) in the experiment with HCT-116; 21 µM (inactive) with LOX IMVI; 31.2 µM (inactive) in the experiment on Malme-3M; 41.8 µM (inactive) in the experiment with SR. Besides, the GI50 in the experiment with HCC 2998 is 46.1 µM (inactive); in the experiment with HOP-62 it was 43.9 µM (inactive); in the experiment on A498, 17.7 µM (inactive); in the experiment on KM12, 33.3 µM (inactive); in the experiment on UACC-257 it was > 100 µM (inactive).

`CC(Cn1c2c(c3cc(O)ccc31)CCc1ccc(O)cc1-2)N(C)C` (configuration not stated): the GI50 in the experiment on SF-539 is 16.1 µM (inactive); in the experiment on MCF7 it was 19.9 µM (inactive); in the experiment with RXF 393 it was 22.1 µM (inactive); with EKVX, 19.8 µM (inactive); in the experiment with BT-549, 16.3 µM (inactive); in the experiment on SNB-19, 17.8 µM (inactive). The GI50 with M14 was 14.1 µM (inactive); with NCI-H23, 19.6 µM (inactive); with HCT-116, 19.7 µM (inactive); with LOX IMVI, 23.4 µM (inactive); in the experiment on Malme-3M, 14.5 µM (inactive); in the experiment on SR, 48.2 µM (inactive). Besides, the GI50 is 15.6 µM (inactive) in the experiment with HOP-62, 26.3 µM (inactive) in the experiment on A498, 15.9 µM (inactive) with KM12 and 19.9 µM (inactive) with UACC-257.

On to `COc1ccc2c3c([nH]c2c1[N+](=O)[O-])C(C)N(Cc1ccc([N+](=O)[O-])cc1)CC3` (configuration not stated), for which the GI50 is > 100 µM (inactive) in the experiment on SF-539; 10.9 µM (inactive) in the experiment on RXF 393; 2.16 µM (inactive) in the experiment on OVCAR-4; 37.6 µM (inactive) in the experiment on EKVX; 19.3 µM (inactive) in the experiment on SNB-19; 8.43 µM (inactive) in the experiment on M14. For the same compound, the GI50 was 6.7 µM (inactive) in the experiment on NCI-H23; 4.74 µM (inactive) in the experiment with LOX IMVI; 5.5 µM (inactive) with SR; 17.2 µM (inactive) in the experiment on HCC 2998; > 10 µM (inactive) in the experiment with HOP-62; 14.8 µM (inactive) with A498. Besides, the GI50 was 14.2 µM (inactive) in the experiment with KM12 and 12.9 µM (inactive) in the experiment on UACC-257.

Consider `C[C@H]1C[C@H]2[C@@H]3C(C)(C)O[C@]4(O)C(=O)[C@]5(O)[C@@H](C)CC[C@H]1[C@]25C(=O)[C@]34C`, for which the GI50 with SF-539 is > 100 µM (inactive); in the experiment with MCF7, 41.3 µM (inactive); in the experiment on SNB-19, > 100 µM (inactive); in the experiment on M14 it was 71 µM (inactive); in the experiment with NCI-H23 it was 30.3 µM (inactive); in the experiment on HCT-116 it was 30.7 µM (inactive). Further, the GI50 with LOX IMVI is 36.1 µM (inactive); with SR, 40.1 µM (inactive); with T47D it was 25.2 µM (inactive); with HOP-62 it was 47.1 µM (inactive); with A498, 35 µM (inactive); in the experiment with KM12, 35.6 µM (inactive). Also, in the experiment with UACC-257, the GI50 is 48.5 µM (inactive).

`CNC(=O)NCCN1CC2CCC(CC2)C1`: the GI50 in the experiment on SF-539, with MCF7, in the experiment with RXF 393, in the experiment with OVCAR-4, with EKVX and in the experiment on SNB-19 was > 10 µM (inactive) each time. Further, the GI50 with M14, in the experiment on NCI-H23, in the experiment on HCT-116, in the experiment with LOX IMVI, in the experiment on Malme-3M and in the experiment with SR was > 10 µM (inactive) throughout. Moreover, the GI50 with HCC 2998, in the experiment with T47D, in the experiment on HOP-62, in the experiment with A498, with KM12 and in the experiment with UACC-257 was > 10 µM (inactive) in each case.

With `COc1ccc2c(c1)c1c3c(ccc4ncn2c43)N(CCN(C)C)CCN=1`, the GI50 with SF-539 was 0.362 µM (active); in the experiment on MCF7 it was 0.288 µM (active); in the experiment on RXF 393, 1.12 µM (active); in the experiment on OVCAR-4 it was 0.309 µM (active); in the experiment on EKVX, 0.586 µM (active); in the experiment with SNB-19, 0.405 µM (active). Also, the GI50 was 0.895 µM (active) with M14; 0.968 µM (active) in the experiment on NCI-H23; 0.298 µM (active) in the experiment with HCT-116; 0.378 µM (active) with LOX IMVI; 1.2 µM (inactive) in the experiment on Malme-3M; 0.0302 µM (active) in the experiment with SR. In addition, the GI50 in the experiment on HCC 2998 was 0.422 µM (active); in the experiment with T47D, 1.52 µM (inactive); in the experiment with HOP-62, 0.362 µM (active); in the experiment with A498, 1.42 µM (inactive); in the experiment on KM12, 0.374 µM (active); in the experiment with UACC-257 it was 1.85 µM (inactive).

Take `CCCCn1c2c(n(CCCC)c1=[Se])-c1c(n(CCCC)c(=[Se])n1CCCC)S[Se][Se]S2`: the GI50 with SF-539 was 20.8 µM (inactive); with MCF7 it was 25.4 µM (inactive); in the experiment on RXF 393 it was 21.8 µM (inactive); with OVCAR-4, 9.27 µM (inactive); in the experiment with EKVX, 38.5 µM (inactive); in the experiment with BT-549, 27.7 µM (inactive). For the same compound, the GI50 was 17 µM (inactive) with SNB-19; 25.6 µM (inactive) in the experiment with M14; 25.1 µM (inactive) with NCI-H23; 22.8 µM (inactive) in the experiment with HCT-116; 16.5 µM (inactive) in the experiment with LOX IMVI; 3.52 µM (inactive) in the experiment with Malme-3M. Besides, the GI50 in the experiment with SR was 20.7 µM (inactive); with HCC 2998, 30.4 µM (inactive); in the experiment with HOP-62 it was 13.7 µM (inactive); with A498 it was 33.5 µM (inactive); in the experiment on KM12, 27.2 µM (inactive); with UACC-257, 32.8 µM (inactive).

Regarding `CN(C)C(=O)Nc1cc2c3c(c1)CCCN3CCC2`, the GI50 with SF-539, with MCF7, in the experiment on RXF 393, in the experiment on OVCAR-4, with EKVX and in the experiment on SNB-19 was > 10 µM (inactive) each time. In addition, the GI50 with M14, in the experiment with NCI-H23, with HCT-116, with LOX IMVI, in the experiment on Malme-3M and in the experiment with SR was > 10 µM (inactive) in each case. Also, the GI50 with HCC 2998 was > 10 µM (inactive); with T47D, > 10 µM (inactive); in the experiment with HOP-62, > 10 µM (inactive); in the experiment on A498, 4.57 µM (inactive); in the experiment on KM12, > 10 µM (inactive); with UACC-257 it was > 10 µM (inactive).

For `Cc1cc2c(=O)cc(-c3ccc(Cl)cc3Cl)oc2c(C(=O)O)c1C`, the GI50 in the experiment on SF-539, with RXF 393, in the experiment with OVCAR-4, in the experiment with EKVX, with SNB-19 and in the experiment on M14 was > 100 µM (inactive) throughout. The GI50 with NCI-H23, in the experiment on HCT-116, in the experiment on LOX IMVI, with Malme-3M, in the experiment on KM12 and in the experiment on UACC-257 was > 100 µM (inactive) in each case.

For `Cn1c(=O)c2[nH]c(Nc3cccc(Cl)c3)nc2n(C)c1=O`, the GI50 was 3.79 µM (inactive) in the experiment with MCF7; 2.05 µM (inactive) with RXF 393; 4.05 µM (inactive) in the experiment on OVCAR-4; 4.16 µM (inactive) in the experiment on EKVX; 5.6 µM (inactive) in the experiment with M14; 2.63 µM (inactive) with NCI-H23. The GI50 with LOX IMVI is 7.13 µM (inactive); in the experiment on Malme-3M it was 3.65 µM (inactive); in the experiment on HCC 2998, 4.27 µM (inactive); in the experiment with T47D, 2.86 µM (inactive); in the experiment with HOP-62, 4.67 µM (inactive); in the experiment on KM12, 4.78 µM (inactive). Also, the GI50 in the experiment on UACC-257 was 4.18 µM (inactive).

With `CC1(C)CCC[C@]2(C)[C@H]3[C@H](C#N)c4cc(O)c(O)cc4O[C@@]3(C)CC[C@@H]12`, the GI50 in the experiment on SF-539, in the experiment on MCF7, in the experiment on RXF 393, in the experiment with OVCAR-4, in the experiment on EKVX and in the experiment with SNB-19 was > 10 µM (inactive) in each case. Also, the GI50 with M14, in the experiment with NCI-H23, with LOX IMVI, with SR, with HCC 2998 and with HOP-62 was > 10 µM (inactive) in each case. For the same compound, the GI50 in the experiment with A498, in the experiment with KM12 and in the experiment on UACC-257 was > 10 µM (inactive) each time.

For `C[n+]1c(-c2ccc(/C=N/NC(=O)C(=O)N/N=C/c3ccc(-c4cn5ccccc5[n+]4C)cc3)cc2)cn2ccccc21`, the GI50 in the experiment on SF-539, in the experiment on MCF7, with RXF 393, in the experiment on OVCAR-4, with EKVX and with BT-549 was > 100 µM (inactive) in each case. The GI50 in the experiment with SNB-19, in the experiment on M14, in the experiment with NCI-H23, in the experiment with Malme-3M, in the experiment on HCC 2998 and in the experiment on HOP-62 was > 100 µM (inactive) each time. In addition, the GI50 in the experiment on A498, with KM12 and in the experiment with UACC-257 was > 100 µM (inactive) each time.
